Data: patent US20200113181A1, “HERBICIDAL COMPOUNDS” (SYNGENTA PARTICIPATIONS AG, priority 2016, published 2020)

How the values were obtained:
Type in all cases: in vivo
[1] = system: wheat plants (Triticum aestivum (TRZAW)); test: Crop phytotoxicity, wheat plants treated post-emergence
Protocol: (§1) Seeds of a variety of test species are sown in standard soil in pots (Lolium perenne (LOLPE), Setaria faberi (SETFA), Alopecurus myosuroides (ALOMY), Echinochloa crus-galli (ECHCG), Avena fatua (AVEFA)). After cultivation for one day (pre-emergence) or after 8 days cultivation (post-emergence) under controlled conditions in a glasshouse (at 24/16° C., day/night; 14 hours light; 65% humidity), the plants are sprayed with an aqueous spray solution derived from the formulation of the technical active ingredient in acetone/water (50:50) solution containing 0.5% Tween 20 (polyoxyethelyene sorbitan monolaurate, CAS RN 9005-64-5). Compounds are applied at […]. The test plants are then grown in a glasshouse under controlled conditions in a glasshouse (at 24/16° C., day/night; 14 hours light; 65% humidity) and watered twice daily. After 13 days for pre and post-emergence, the test is evaluated for the percentage damage caused to the plant. The biological activities are shown in the following table on a five point scale (5=80-100%; 4=60-79%; 3=40-59%; 2=20-39%; 1=0-19%).
Using procedures outlines above, wheat plants (Triticum aestivum (TRZAW) are treated post-emergence with compound 1.2 of the present invention or compound A-18 from WO 2013/079708. The results outlined in Table B2 below show % phytotoxicity observed and that compound 1.2 of the present invention is less damaging to wheat compared to compound A-18 disclosed in WO2013/079708.

[2] = system: Echinochloa crus-galli (ECHCG); test: Glasshouse herbicide test, pre- and post-emergence, Echinochloa crus-galli; conditions: 250 g/h, evaluated after 13 days; for ECHCG POST, percentage damage caused to the plant (five point scale): post-emergence; for ECHCG PRE, percentage damage caused to the plant (five point scale): pre-emergence
Protocol: as §1

Lolium perenne (LOLPE) = test: Glasshouse herbicide test, pre- and post-emergence, Lolium perenne; conditions: 250 g/h, evaluated after 13 days; for LOLPE POST, percentage damage caused to the plant (five point scale): post-emergence; for LOLPE PRE, percentage damage caused to the plant (five point scale): pre-emergence
Protocol: as §1

Avena fatua (AVEFA) = test: Glasshouse herbicide test, pre- and post-emergence, Avena fatua; conditions: 250 g/h, evaluated after 13 days; for AVEFA POST, percentage damage caused to the plant (five point scale): post-emergence; for AVEFA PRE, percentage damage caused to the plant (five point scale): pre-emergence
Protocol: as §1

Setaria faberi (SETFA) = test: Glasshouse herbicide test, pre- and post-emergence, Setaria faberi; conditions: 250 g/h, evaluated after 13 days; for SETFA POST, percentage damage caused to the plant (five point scale): post-emergence; for SETFA PRE, percentage damage caused to the plant (five point scale): pre-emergence
Protocol: as §1

[3] = system: Alopecurus myosuroides (ALOMY); test: Glasshouse herbicide test, pre- and post-emergence, Alopecurus myosuroides; conditions: 250 g/h, evaluated after 13 days; for ALOMY POST, percentage damage caused to the plant (five point scale): post-emergence; for ALOMY PRE, percentage damage caused to the plant (five point scale): pre-emergence
Protocol: as §1

[4] = system: soybean plants (Glycine max (GLYMX)); test: Crop phytotoxicity, soybean plants treated post-emergence
Protocol: [The procedure below names another organism; the source says it served here with some conditions changed.] as §1

Compound | TRZAW % Phyto ([1]; rate 4 g/ha) [%] | TRZAW % Phyto ([1]; rate 16 g/ha) [%] | TRZAW % Phyto ([1]; rate 63 g/ha) [%] | ECHCG POST, percentage damage caused to the plant (five point scale) [2] | ECHCG PRE, percentage damage caused to the plant (five point scale) [2] | LOLPE POST, percentage damage caused to the plant (five point scale) (Lolium perenne (LOLPE)) | LOLPE PRE, percentage damage caused to the plant (five point scale) (Lolium perenne (LOLPE)) | AVEFA POST, percentage damage caused to the plant (five point scale) (Avena fatua (AVEFA)) | AVEFA PRE, percentage damage caused to the plant (five point scale) (Avena fatua (AVEFA)) | SETFA POST, percentage damage caused to the plant (five point scale) (Setaria faberi (SETFA)) | SETFA PRE, percentage damage caused to the plant (five point scale) (Setaria faberi (SETFA)) | ALOMY POST, percentage damage caused to the plant (five point scale) [3] | ALOMY PRE, percentage damage caused to the plant (five point scale) [3] | GLYMX % Phyto ([4]; rate 15 g/ha) [%] | GLYMX % Phyto ([4]; rate 30 g/ha) [%] | GLYMX % Phyto ([4]; rate 60 g/ha) [%]
CC#Cc1ccc(C2C(=O)[C@@H]3[C@H](C2=O)[C@H]2CC[C@@H]3O2)c(OC)c1 (stereo partly drawn) [Compound 1.2, 4-[2-methoxy-4-(prop-1-yn-1-yl)phenyl]-10-oxatricyclo[5.2.1.0^2,6]decane-3,5-dione] | 20 | 70 | 60 | 5 (5=80-100%) | 5 (5=80-100%) | 5 (5=80-100%) | 5 (5=80-100%) | 5 (5=80-100%) | 5 (5=80-100%) | 5 (5=80-100%) | 5 (5=80-100%) | – | – | – | – | –
CC#Cc1ccc(C2=C(OC(=O)OC)[C@@H]3[C@H](C2=O)[C@@H]2O[C@H]3C[C@@H]2COC)c(OC)c1 (racemic) [Compound 1.28] | – | – | – | 5 (5=80-100%) | 5 (5=80-100%) | 5 (5=80-100%) | 5 (5=80-100%) | 5 (5=80-100%) | 5 (5=80-100%) | 5 (5=80-100%) | 5 (5=80-100%) | 5 (5=80-100%) | 5 (5=80-100%) | – | – | –
CC#Cc1ccc(C2C(=O)[C@H]3[C@@H]4CC[C@@](C)(O4)[C@H]3C2=O)c(OC)c1 (mixture of isomers) [Compound 1.5] | – | – | – | 5 (5=80-100%) | 5 (5=80-100%) | 5 (5=80-100%) | 5 (5=80-100%) | 5 (5=80-100%) | 5 (5=80-100%) | 5 (5=80-100%) | 5 (5=80-100%) | 5 (5=80-100%) | 5 (5=80-100%) | – | – | –
CC#Cc1ccc(C2C(=O)[C@@H]3[C@H](C2=O)[C@@]2(C)CC[C@]3(C)O2)c(OC)c1 (stereo partly drawn) [Compound 1.11] | – | – | – | 5 (5=80-100%) | 3 (3=40-59%) | 5 (5=80-100%) | 4 (4=60-79%) | 5 (5=80-100%) | 3 (3=40-59%) | 5 (5=80-100%) | 3 (3=40-59%) | 5 (5=80-100%) | 5 (5=80-100%) | – | – | –
CC#Cc1cc(C)c(C2C(=O)[C@@H]3[C@H](C2=O)[C@H]2CC[C@@H]3O2)c(C)c1 (stereo partly drawn) [Compound A-18, reference compound] | 60 | 100 | 100 | – | – | – | – | – | – | – | – | – | – | 40 | 60 | 80
CC#Cc1ccc(C2C(=O)[C@@H]3[C@H](C2=O)[C@H]2CC[C@@H]3O2)c(OCCOC)c1 (mixture of isomers) [Compound 1.32] | – | – | – | 5 (5=80-100%) | 3 (3=40-59%) | 5 (5=80-100%) | 4 (4=60-79%) | 5 (5=80-100%) | 4 (4=60-79%) | 5 (5=80-100%) | 3 (3=40-59%) | 4 (4=60-79%) | 1 (1=0-19%) | – | – | –
CC#Cc1ccc(C2C(=O)[C@@H]3[C@H](C2=O)[C@H]2CC[C@@H]3O2)c(OCC)c1 (mixture of isomers) [Compound 1.30] | – | – | – | 5 (5=80-100%) | 5 (5=80-100%) | 5 (5=80-100%) | 5 (5=80-100%) | 5 (5=80-100%) | 5 (5=80-100%) | – | 5 (5=80-100%) | 5 (5=80-100%) | 5 (5=80-100%) | – | – | –
